Data taken from publication PMC7180948, “New Insights into 4-Anilinoquinazolines as Inhibitors of Cardiac Troponin I–Interacting Kinase (TNNi3K)” (Molecules, 2020).

Legend:
Test in all cases: biochemical
Design in all cases: KINOMEscan competition binding panel (Eurofins DiscoverX), single concentration, % inhibition
Settings in all cases: read-out: 7 at 1 µM % inhibition
MAP3K3 = MAP3K3 (Homo sapiens, UniProt Q99759)
Experimental: (§1) KinomeScan® Assay on 7 and 15 was performed as previously described by EuroFins DiscoverX [24]. GSK114 (7) and 15 were submitted for a KINOMEscan® assay to explore the selectivity profile across >400 human kinases at a compound concentration of 1 µM. […] GSK114 (7) is a narrow-spectrum TNNi3K inhibitor but has some potent off-targets including GAK which has been previously reported for this chemotype. […] If utilized together this set of compounds could be useful to investigate TNNi3K biology.

DDR2 = DDR2 (Homo sapiens, UniProt Q16832)
Sequence of DDR2 (Q16832 whole entry): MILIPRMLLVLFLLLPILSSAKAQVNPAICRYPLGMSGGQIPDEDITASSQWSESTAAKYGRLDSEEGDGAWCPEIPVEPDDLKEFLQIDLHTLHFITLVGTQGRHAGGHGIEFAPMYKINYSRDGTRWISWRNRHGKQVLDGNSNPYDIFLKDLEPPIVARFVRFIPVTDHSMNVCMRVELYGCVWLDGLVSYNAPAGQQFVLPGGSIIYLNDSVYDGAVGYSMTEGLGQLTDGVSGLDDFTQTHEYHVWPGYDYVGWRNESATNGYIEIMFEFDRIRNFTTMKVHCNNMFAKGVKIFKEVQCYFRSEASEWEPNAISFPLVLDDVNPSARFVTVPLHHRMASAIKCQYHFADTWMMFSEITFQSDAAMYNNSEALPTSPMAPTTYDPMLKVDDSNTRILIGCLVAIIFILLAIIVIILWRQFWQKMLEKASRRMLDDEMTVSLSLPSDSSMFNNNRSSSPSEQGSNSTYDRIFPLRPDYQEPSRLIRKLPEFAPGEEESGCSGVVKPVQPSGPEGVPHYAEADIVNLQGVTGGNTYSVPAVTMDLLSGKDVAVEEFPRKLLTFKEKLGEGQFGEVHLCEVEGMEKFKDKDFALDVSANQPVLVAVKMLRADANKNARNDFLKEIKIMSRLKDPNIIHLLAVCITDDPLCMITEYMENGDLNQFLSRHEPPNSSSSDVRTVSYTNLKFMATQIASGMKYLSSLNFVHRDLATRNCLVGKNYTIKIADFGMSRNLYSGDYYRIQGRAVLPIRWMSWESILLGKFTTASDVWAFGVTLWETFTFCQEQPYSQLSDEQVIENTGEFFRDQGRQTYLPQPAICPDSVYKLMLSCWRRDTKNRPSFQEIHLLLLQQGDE
Experimental: as §1

TYRO3 = TYRO3 (Homo sapiens, UniProt Q06418)
Sequence of TYRO3 (Q06418 whole entry): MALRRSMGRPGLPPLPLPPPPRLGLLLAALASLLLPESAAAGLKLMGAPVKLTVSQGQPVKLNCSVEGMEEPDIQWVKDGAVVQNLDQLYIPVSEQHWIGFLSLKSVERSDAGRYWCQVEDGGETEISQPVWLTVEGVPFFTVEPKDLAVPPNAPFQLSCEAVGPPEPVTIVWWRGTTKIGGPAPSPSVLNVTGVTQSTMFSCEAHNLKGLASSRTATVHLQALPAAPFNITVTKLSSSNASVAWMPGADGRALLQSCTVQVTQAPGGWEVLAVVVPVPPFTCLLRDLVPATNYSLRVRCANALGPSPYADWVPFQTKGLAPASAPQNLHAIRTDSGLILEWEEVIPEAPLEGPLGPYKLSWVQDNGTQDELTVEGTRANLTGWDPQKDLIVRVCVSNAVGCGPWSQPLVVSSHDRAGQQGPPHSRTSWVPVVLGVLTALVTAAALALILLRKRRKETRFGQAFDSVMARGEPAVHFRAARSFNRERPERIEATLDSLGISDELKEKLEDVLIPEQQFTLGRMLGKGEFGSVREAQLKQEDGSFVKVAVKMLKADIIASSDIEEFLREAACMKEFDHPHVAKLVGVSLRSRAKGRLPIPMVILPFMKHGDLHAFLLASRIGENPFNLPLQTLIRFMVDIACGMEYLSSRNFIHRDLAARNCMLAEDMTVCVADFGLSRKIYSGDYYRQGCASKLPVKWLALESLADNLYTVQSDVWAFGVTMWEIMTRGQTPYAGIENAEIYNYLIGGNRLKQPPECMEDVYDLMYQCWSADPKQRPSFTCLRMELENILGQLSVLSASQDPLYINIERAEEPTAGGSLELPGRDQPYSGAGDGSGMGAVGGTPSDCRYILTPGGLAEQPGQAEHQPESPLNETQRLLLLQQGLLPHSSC
Experimental: as §1

LOK = biological target: T1, LOK (Homo sapiens, UniProt O94804)
T1 construct: gene STK10
Experimental: as §1

PIK3CA(E542K) = PIK3CA(E542K) (Homo sapiens, UniProt P42336, E542K)
Experimental: as §1

PDPK1 = PDPK1 (Homo sapiens, UniProt O15530)
Sequence of PDPK1 (O15530 whole entry): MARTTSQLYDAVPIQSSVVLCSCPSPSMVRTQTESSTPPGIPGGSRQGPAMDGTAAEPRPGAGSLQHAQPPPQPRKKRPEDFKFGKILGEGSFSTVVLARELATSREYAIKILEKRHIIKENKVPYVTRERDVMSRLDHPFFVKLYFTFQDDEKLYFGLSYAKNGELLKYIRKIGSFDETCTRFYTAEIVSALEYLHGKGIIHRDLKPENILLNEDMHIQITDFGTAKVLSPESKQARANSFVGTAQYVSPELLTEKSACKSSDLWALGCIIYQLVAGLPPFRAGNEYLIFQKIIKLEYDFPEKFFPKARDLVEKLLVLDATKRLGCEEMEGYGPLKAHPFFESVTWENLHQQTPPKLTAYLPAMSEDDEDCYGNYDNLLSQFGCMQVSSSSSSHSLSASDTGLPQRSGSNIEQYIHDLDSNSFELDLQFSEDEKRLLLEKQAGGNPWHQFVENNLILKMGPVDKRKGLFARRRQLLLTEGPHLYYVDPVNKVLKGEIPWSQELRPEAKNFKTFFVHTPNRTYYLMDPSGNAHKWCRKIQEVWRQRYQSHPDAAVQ
Experimental: as §1

PKAC-beta = biological target: T2, PKAC-beta (Homo sapiens, UniProt P22694)
T2 construct: gene PRKACB
Experimental: as §1

PHKG1 = PHKG1 (Homo sapiens, UniProt Q16816)
Sequence of PHKG1 (Q16816 whole entry): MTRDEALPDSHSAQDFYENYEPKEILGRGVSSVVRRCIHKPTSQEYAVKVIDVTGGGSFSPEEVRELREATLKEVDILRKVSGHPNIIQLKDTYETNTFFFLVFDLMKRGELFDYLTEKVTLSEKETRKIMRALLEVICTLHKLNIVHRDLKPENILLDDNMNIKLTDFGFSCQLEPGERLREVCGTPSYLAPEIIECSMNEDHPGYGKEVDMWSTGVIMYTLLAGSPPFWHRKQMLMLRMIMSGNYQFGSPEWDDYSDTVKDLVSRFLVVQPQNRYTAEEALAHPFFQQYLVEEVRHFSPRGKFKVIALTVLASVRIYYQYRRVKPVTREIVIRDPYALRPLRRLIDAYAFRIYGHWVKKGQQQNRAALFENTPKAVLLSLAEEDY
Experimental: as §1

HUNK = HUNK (Homo sapiens, UniProt P57058)
Experimental: as §1

FLT3(R834Q) = FLT3(R834Q) (Homo sapiens, UniProt P36888, R834Q)
Experimental: as §1

MEK1 = biological target: T3, MEK1 (Homo sapiens, UniProt Q02750)
T3 construct: gene MAP2K1
Experimental: as §1

MARK3 = MARK3 (Homo sapiens, UniProt P27448)
Sequence of MARK3 (P27448 whole entry): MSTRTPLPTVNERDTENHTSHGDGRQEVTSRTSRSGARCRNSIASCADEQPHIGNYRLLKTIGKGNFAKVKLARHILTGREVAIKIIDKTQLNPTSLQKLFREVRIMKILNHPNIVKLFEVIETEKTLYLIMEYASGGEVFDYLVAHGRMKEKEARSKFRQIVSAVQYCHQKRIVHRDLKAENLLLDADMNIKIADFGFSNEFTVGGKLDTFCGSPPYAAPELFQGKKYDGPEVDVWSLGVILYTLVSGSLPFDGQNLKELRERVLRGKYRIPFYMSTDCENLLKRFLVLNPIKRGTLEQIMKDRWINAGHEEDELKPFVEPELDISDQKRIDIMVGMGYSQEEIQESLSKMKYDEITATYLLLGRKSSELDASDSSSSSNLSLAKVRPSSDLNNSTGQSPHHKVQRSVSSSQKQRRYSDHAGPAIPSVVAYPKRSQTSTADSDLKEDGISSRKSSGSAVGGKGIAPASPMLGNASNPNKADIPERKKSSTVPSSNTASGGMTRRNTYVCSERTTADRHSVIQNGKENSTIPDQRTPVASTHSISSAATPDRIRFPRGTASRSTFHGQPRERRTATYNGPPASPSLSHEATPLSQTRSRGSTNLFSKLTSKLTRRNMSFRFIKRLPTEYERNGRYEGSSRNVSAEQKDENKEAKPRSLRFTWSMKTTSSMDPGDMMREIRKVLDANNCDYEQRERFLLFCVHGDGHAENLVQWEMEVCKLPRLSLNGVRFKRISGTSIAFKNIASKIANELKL
Experimental: as §1

MAP4K3 = MAP4K3 (Homo sapiens, UniProt Q8IVH8)
Experimental: as §1

LKB1 = biological target: T4, LKB1 (Homo sapiens, UniProt Q15831)
T4 construct: gene STK11
T4 sequence (Q15831 whole entry): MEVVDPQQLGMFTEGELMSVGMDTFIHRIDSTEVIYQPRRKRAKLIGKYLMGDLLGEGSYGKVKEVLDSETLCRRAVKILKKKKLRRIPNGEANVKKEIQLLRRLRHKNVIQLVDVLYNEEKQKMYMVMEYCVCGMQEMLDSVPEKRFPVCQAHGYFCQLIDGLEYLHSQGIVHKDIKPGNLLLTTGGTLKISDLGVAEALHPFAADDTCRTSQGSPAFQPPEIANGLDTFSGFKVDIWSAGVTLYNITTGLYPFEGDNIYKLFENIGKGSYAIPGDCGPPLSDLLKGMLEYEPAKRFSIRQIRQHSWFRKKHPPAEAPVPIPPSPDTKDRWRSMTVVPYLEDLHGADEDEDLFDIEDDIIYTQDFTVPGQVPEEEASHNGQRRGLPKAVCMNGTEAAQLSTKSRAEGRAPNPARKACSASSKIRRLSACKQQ
Experimental: as §1

LIMK1 = LIMK1 (Homo sapiens, UniProt P53667)
Experimental: as §1

FLT3-autoinhibited = FLT3-autoinhibited (Homo sapiens, UniProt P36888)
Experimental: as §1

KIT(V559D) = KIT(V559D) (Homo sapiens, UniProt P10721, V559D)
Experimental: as §1

WNK3 = WNK3 (Homo sapiens, UniProt Q9BYP7)
Experimental: as §1

CLK2 = CLK2 (Homo sapiens, UniProt P49760)
Sequence of CLK2 (P49760 whole entry): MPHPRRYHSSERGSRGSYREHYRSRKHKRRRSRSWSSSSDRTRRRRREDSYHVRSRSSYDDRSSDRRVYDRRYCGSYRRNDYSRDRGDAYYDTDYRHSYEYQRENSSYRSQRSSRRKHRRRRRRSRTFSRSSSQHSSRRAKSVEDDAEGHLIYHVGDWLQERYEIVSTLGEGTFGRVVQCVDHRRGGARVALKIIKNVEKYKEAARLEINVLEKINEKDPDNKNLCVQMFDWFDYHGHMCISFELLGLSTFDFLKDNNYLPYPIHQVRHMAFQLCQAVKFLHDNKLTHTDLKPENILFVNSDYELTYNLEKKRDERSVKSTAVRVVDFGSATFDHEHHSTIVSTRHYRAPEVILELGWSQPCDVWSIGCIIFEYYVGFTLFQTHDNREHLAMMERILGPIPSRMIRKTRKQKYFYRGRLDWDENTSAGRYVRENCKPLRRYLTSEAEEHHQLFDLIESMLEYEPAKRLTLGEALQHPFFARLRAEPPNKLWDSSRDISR
Experimental: as §1

PRKCI = PRKCI (Homo sapiens, UniProt P41743)
Experimental: as §1

CSNK1A1 = CSNK1A1 (Homo sapiens, UniProt P48729)
Experimental: as §1

CAMK2A = CAMK2A (Homo sapiens, UniProt Q9UQM7)
Sequence of CAMK2A (Q9UQM7 whole entry): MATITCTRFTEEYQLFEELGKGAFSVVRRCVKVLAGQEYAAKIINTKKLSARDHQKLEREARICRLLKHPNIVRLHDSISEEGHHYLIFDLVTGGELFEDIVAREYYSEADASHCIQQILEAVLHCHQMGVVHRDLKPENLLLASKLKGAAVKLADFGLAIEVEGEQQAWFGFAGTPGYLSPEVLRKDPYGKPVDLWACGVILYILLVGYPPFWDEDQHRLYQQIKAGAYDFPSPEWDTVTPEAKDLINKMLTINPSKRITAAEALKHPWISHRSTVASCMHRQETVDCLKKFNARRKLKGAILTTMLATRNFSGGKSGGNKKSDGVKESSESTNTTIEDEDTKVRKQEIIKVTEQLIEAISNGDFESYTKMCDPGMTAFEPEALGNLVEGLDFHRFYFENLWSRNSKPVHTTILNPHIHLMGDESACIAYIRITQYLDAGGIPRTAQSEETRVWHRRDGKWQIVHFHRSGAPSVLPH
Experimental: as §1

CSF1R = CSF1R (Homo sapiens, UniProt P07333)
Experimental: as §1

PKAC-alpha = biological target: T5, PKAC-alpha (Homo sapiens, UniProt P17612)
T5 construct: gene PRKACA
Experimental: as §1

CNS(=O)(=O)c1ccc(N(C)C)c(Nc2ncnc3cc(OC)c(OC)cc23)c1 [compound 7, 3-((6,7-dimethoxyquinazolin-4-yl)amino)-4-(dimethylamino)-N-methylbenzenesulfonamide]
inhibition at 1 µM (MAP3K3): 30% | inhibition at 1 µM (DDR2): 41% | inhibition at 1 µM (TYRO3): 0% | inhibition at 1 µM (LOK): 44% | inhibition at 1 µM (PIK3CA(E542K)): 17% | inhibition at 1 µM (PDPK1): 0% | inhibition at 1 µM (PKAC-beta): 0% | inhibition at 1 µM (PHKG1): 0% | inhibition at 1 µM (HUNK): 0% | inhibition at 1 µM (FLT3(R834Q)): 31% | inhibition at 1 µM (MEK1): 35% | inhibition at 1 µM (MARK3): 0% | inhibition at 1 µM (MAP4K3): 0% | inhibition at 1 µM (LKB1): 0% | inhibition at 1 µM (LIMK1): 0% | inhibition at 1 µM (FLT3-autoinhibited): 12% | inhibition at 1 µM (KIT(V559D)): 28% | inhibition at 1 µM (WNK3): 2% | inhibition at 1 µM (CLK2): 7% | inhibition at 1 µM (PRKCI): 5% | inhibition at 1 µM (CSNK1A1): 0% | inhibition at 1 µM (CAMK2A): 9% | inhibition at 1 µM (CSF1R): 22% | inhibition at 1 µM (PKAC-alpha): 6%
